Test results: patent publication US7662778B2, “Histone deacetylase inhibitor and process for producing the same” (Riken, priority 2003, dated 2010)
Read-outs that look alike come from different tables or passages of the source. Where a SMILES comes first, the peptide text is derived from it. [ ]: non-standard residue; d: D form. Phe(4-NH2) = Nc1ccc(C[C@H](N)C(=O)O)cc1

Legend:
[1] = target: T1, mouse HDAC6 (Mus musculus, UniProt Q9Z2V5); assay: HDAC inhibitory activity in vitro (coumarin-labeled acetylated histone peptide), HDAC6; assay type: biochemical
T1 construct: HA; made in house; host or cells: 293T cells, transient transfection; anti-HA immunoprecipitation and HA peptide elution
T1 sequence (Q9Z2V5 1-1149): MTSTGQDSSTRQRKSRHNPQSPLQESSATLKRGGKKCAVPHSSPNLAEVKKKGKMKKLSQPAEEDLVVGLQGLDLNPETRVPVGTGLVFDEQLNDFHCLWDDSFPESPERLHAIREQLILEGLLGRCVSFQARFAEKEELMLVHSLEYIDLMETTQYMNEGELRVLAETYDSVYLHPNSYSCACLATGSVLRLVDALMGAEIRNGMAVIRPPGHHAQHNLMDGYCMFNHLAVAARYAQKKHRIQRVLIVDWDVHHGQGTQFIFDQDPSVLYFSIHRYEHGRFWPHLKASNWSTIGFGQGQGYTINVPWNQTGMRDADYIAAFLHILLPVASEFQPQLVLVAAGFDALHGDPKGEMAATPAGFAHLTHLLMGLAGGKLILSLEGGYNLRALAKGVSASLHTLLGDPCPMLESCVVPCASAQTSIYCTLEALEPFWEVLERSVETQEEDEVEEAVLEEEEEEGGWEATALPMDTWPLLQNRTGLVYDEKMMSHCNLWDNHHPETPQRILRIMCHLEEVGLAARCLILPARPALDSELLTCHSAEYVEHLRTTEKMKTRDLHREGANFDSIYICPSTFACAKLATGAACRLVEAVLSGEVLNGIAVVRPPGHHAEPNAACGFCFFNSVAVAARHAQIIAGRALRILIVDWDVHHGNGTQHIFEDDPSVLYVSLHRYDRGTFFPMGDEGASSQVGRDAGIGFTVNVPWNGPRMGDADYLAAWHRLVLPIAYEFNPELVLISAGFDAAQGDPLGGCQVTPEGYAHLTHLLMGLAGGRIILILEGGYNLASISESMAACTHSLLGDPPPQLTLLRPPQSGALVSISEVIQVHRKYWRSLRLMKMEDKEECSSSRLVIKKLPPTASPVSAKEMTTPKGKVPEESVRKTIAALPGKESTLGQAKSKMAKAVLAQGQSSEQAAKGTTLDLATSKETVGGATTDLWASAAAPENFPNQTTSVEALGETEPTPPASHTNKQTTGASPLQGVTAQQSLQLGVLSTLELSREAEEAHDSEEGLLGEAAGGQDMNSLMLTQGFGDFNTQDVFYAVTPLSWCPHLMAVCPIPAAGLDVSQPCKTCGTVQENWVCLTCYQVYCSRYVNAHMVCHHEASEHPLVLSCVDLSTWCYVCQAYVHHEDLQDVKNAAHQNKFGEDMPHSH

[2] = system: normal human lung cells (TIG-3)
[3] = system: human uterine cancer cells (HeLa); assay: Cytotoxicity test (XTT), HeLa; assay type: cell-based; conditions: 48 hours
[4] = system: human wild-type p21 promoter; assay: p21 promoter-inducing activity (luciferase) in MFLL-9 cells; assay type: cell-based; conditions: Table 1; MFLL-9 cells, 18 hours; concentration corresponding to 50% of the maximum active value for TSA
Description: The HDAC inhibitory activity in vivo was measured using p21 promoter-inducing activity as an index, as shown below. The MFLL-9 cells employed for the experiments stably maintained fusion genes of human wild-type p21 promoter and luciferase (Dr. B. Vogelstaein). Using phenol red-free DMEM medium comprising 10% FBS, cultivation was carried out in a steam-saturated incubator at 37° C. with 5% carbon dioxide. The MFLL-9 cells were plated at a density of 85,000 cells/well on a 96-well microtiter plate, each in 99 μl of the above-mentioned medium. These were then cultivated for six hours. One μl of test compound solution was added to each well, which was then cultured for another 18 hours.
The intensity of luminescence caused by the product of the enzyme reaction for intracellular luciferase expression was measured using Luc Lite (Packard BioScience Company).
HDAC inhibitory activity in an in vivo system was measured using p21 promoter induction as index. The experimental method followed that of Example 11.

[5] = system: tubulin deacetylase; assay: Tubulin and histone acetylation level in HeLa cells by western blotting; assay type: cell-based, human; conditions: six hours, anti-acetylated lysine antibody, FIG. 4
Description: Tubulin and histone acetylation levels were measured by: (a) reacting a test compound with HeLa cells; and (b) confirming the tubulin and histone acetylation level by western blotting using anti-acetylated lysine antibodies. Specifically, human uterine cancer cells (HeLa) were cultured in a DMEM medium supplemented with 10% FBS at 37° C. in the presence of 5% carbon dioxide in a steam-saturated incubator. Two ml of the cells at a density of 15,000 cells/ml were plated onto a 6-well plate and cultured for 18 hours. Test compound solution was added to each culture and successively cultured for another six hours. The cells were washed with PBS, suspended in a lysis buffer (50 mM Tris-HCl (pH7.5), 120 mM NaCl, 5 mM EDTA, 0.5% Nonidet P-40), and then sonicated. The supernatant was collected by centrifugation, mixed with SDS bufer, and left at 100° C. for five minutes. The resulting sample was subjected to electroplioresis on a 15% SDS gel and transferred to a membrane film. This was treated with primary antibody “AKL5C1” (Japan Energy), and secondary antibody “anti-mouse” (LIFE SCIENCE), and then acetylation bands were detected by ECL (amersham pharmacia biotech) (FIG. 4).

[6] = amide bond, 12-membered ring, HATU/DIEA, DMF, 25.0 °C
[7] = target: T2, human HDAC4 (Homo sapiens, UniProt P56524); assay: HDAC inhibitory activity in vitro (coumarin-labeled acetylated histone peptide), HDAC4; assay type: biochemical
T2 construct: FLAG; made in house; host or cells: 293T cells, transient transfection; anti-FLAG immunoprecipitation and FLAG peptide elution
T2 sequence (P56524 whole entry): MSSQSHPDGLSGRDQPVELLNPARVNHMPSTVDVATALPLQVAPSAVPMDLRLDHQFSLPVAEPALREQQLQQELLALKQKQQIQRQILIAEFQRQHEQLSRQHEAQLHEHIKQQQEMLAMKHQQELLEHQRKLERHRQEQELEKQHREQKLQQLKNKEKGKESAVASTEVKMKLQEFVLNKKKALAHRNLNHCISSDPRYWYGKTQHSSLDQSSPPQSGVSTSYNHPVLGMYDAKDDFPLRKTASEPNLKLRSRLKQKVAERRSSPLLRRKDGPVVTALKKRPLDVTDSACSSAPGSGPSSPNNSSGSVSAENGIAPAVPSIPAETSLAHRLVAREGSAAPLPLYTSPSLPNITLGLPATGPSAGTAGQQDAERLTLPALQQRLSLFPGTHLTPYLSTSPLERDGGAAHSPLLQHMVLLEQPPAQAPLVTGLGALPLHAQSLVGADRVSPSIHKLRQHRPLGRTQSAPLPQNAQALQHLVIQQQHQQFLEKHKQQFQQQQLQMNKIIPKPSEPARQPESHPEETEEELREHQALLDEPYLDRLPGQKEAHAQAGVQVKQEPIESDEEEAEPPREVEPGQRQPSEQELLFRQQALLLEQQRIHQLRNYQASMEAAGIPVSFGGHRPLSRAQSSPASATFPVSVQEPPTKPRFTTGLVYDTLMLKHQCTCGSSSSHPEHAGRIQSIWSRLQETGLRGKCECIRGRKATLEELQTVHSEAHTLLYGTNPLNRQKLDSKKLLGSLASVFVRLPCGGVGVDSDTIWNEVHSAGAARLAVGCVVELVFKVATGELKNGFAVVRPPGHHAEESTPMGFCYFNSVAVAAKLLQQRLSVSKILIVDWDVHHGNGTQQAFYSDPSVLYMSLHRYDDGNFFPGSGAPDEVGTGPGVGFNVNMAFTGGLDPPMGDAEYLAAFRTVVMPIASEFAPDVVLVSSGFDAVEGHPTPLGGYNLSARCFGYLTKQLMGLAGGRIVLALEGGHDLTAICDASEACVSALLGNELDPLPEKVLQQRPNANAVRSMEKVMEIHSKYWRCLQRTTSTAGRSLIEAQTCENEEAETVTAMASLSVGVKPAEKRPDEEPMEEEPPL

[8] = target: T3, human HDAC1 (Homo sapiens, UniProt Q13547); assay: HDAC inhibitory activity in vitro (coumarin-labeled acetylated histone peptide), HDAC1; assay type: biochemical; conditions: Table 1; 37° C., 30 minutes; read-out: IC50 (μM) HDAC1
T3 construct: FLAG; made in house; host or cells: 293T cells, transient transfection; anti-FLAG immunoprecipitation and FLAG peptide elution
T3 sequence (Q13547 whole entry): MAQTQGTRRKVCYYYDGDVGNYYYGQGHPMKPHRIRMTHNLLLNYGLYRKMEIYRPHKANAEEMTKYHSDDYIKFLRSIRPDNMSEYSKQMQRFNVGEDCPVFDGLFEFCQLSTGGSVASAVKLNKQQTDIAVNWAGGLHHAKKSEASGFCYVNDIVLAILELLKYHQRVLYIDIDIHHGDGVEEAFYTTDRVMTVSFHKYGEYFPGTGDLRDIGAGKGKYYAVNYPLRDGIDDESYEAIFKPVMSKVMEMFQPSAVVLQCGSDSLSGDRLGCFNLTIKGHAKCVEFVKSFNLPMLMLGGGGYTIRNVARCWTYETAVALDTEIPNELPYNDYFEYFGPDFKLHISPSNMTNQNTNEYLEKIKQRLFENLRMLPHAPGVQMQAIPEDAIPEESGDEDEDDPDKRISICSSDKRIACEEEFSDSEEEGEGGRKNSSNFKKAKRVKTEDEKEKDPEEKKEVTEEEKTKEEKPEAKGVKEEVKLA

[9] = Table 1, 37° C., 30 minutes, read-out: IC50 (μM) HDAC6
[10] = read-out: IC50 (nM) TIG-3, 48 hours, XTT

| SMILES | IC50 [1, 9] | IC50 ([2]; 48 h) | IC50 [3] | EC50 [4] | further results |
| --- | --- | --- | --- | --- | --- |
| CC[C@H](C)[C@@H]1NC(=O)[C@@H](Cc2ccc(OC)cc2)NC(=O)[C@H](CCCCCC(=O)C(F)(F)F)NC(=O)[C@H]2CCCN2C1=O [Tfk, cyclo(-L-Tfm-D-Tyr(Me)-L-Ile-D-Pro-)] | 1.44 µM | 87.1 nM | 8.8 nM | 3090 nM | tubulin acetylation (tubulin deacetylase inhibition in the cells) [5]: induced high level of tubulin acetylation |
| CC[C@H](C)[C@@H]1NC(=O)[C@@H](Cc2ccc(OC)cc2)NC(=O)[C@H](CCCCSCC(=O)C(F)(F)F)NC(=O)[C@H]2CCCN2C1=O [Mtfk, cyclo(-L-Am6(Tfacet)-D-Tyr(Me)-L-Ile-D-Pro-)] | 0.95 µM | 468 nM | 52.5 nM | 6640 nM |  |
| CC[C@H](C)[C@@H]1NC(=O)[C@@H](Cc2ccc(OC)cc2)NC(=O)[C@H](CCCCCN(C=O)OCc2ccccc2)NC(=O)[C@H]2CCCN2C1=O [cyclo(-L-Hly(For, OBzl)-D-Tyr(Me)-L-Ile-D-Pro-)] |  |  |  |  | ring closure, isolated yield ([6]; from H-dTyr(Me)-Ile-dPro-Hly(For,OBzl)-OH, 0.96 mM): 66% |
| CC[C@H](C)[C@@H]1NC(=O)[C@@H](Cc2ccc(OC)cc2)NC(=O)[C@H](CCCCCN(C=O)OCc2ccccc2)NC(=O)[C@H]2CCCCN2C1=O [cyclo(-L-Hly(For, OBzl)-D-Tyr(Me)-L-Ile-D-Pip-)] |  |  |  |  | ring closure, isolated yield ([6]; from H-dTyr(Me)-Ile-dPip-Hly(For,OBzl)-OH?, 0.39 mM): 28% |
| CC(/C=C/C(=O)NO)=C\[C@@H](C)C(=O)c1ccc(N(C)C)cc1 [TSA, Trichostatin A, reference compound] |  |  | 12.3 nM | 770 nM | IC50 [2, 10]: 151 nM |
| CC[C@H](C)[C@@H]1NC(=O)[C@@H](Cc2ccc(OC)cc2)NC(=O)[C@H](Cc2ccc(N)cc2)NC(=O)[C@H]2CCCN2C1=O [Aph, cyclo(-L-Aph-D-Tyr(Me)-L-Ile-D-Pro-)] (cyclo(I[dP][Phe(4-NH2)][dY](Me))) | > 500 µM | > 50000 nM | > 50000 nM | > 100000 nM | IC50 ([7]; Table 1, 37° C., 30 minutes, read-out: IC50 (μM) HDAC4): > 500 µM; IC50 [8]: > 500 µM |
| CC[C@H](C)[C@@H]1NC(=O)[C@@H](Cc2ccc(OC)cc2)NC(=O)[C@H](CCCCCC(=O)C(F)(F)C(F)(F)F)NC(=O)[C@H]2CCCN2C1=O [Pfek, cyclo(-L-Pfe-D-Tyr(Me)-L-Ile-D-Pro-)] |  |  | 616 nM | > 100000 nM | IC50 [7]: 1.22 µM; IC50 [1]: 5.72 µM; IC50 [2, 10]: 13400 nM |
| CC[C@H](C)[C@@H]1NC(=O)[C@@H](Cc2ccc(OC)cc2)NC(=O)[C@H](CCCCN(C=O)OCc2ccccc2)NC(=O)[C@H]2CCCCN2C1=O [cyclo(-L-Lys(For, OBzl)-D-Tyr(Me)-L-Ile-D-Pip-)] |  |  |  |  | ring closure, isolated yield ([6]; from H-dTyr(Me)-Ile-dPip-Lys(For,OBzl)-OH?, 0.4 mM): 25% |
